{
  "source": "ChEMBL document CHEMBL5653631",
  "about": "“A Potent and Selective ULK1 Inhibitor Suppresses Autophagy and Sensitizes Cancer Cells to Nutrient Stress” (iScience, 2018)",
  "key": {"[1]": {"target": "Protein kinase C alpha type (Homo sapiens) (UniProt P17252)", "test": "Inhibition of human recombinant PKCa at 500 nM related to control ULK1"}, "[2]": {"target": "Cyclin-dependent kinase 12 (Homo sapiens) (UniProt Q9NYV4)", "sequence (Q9NYV4 whole entry, looked up)": "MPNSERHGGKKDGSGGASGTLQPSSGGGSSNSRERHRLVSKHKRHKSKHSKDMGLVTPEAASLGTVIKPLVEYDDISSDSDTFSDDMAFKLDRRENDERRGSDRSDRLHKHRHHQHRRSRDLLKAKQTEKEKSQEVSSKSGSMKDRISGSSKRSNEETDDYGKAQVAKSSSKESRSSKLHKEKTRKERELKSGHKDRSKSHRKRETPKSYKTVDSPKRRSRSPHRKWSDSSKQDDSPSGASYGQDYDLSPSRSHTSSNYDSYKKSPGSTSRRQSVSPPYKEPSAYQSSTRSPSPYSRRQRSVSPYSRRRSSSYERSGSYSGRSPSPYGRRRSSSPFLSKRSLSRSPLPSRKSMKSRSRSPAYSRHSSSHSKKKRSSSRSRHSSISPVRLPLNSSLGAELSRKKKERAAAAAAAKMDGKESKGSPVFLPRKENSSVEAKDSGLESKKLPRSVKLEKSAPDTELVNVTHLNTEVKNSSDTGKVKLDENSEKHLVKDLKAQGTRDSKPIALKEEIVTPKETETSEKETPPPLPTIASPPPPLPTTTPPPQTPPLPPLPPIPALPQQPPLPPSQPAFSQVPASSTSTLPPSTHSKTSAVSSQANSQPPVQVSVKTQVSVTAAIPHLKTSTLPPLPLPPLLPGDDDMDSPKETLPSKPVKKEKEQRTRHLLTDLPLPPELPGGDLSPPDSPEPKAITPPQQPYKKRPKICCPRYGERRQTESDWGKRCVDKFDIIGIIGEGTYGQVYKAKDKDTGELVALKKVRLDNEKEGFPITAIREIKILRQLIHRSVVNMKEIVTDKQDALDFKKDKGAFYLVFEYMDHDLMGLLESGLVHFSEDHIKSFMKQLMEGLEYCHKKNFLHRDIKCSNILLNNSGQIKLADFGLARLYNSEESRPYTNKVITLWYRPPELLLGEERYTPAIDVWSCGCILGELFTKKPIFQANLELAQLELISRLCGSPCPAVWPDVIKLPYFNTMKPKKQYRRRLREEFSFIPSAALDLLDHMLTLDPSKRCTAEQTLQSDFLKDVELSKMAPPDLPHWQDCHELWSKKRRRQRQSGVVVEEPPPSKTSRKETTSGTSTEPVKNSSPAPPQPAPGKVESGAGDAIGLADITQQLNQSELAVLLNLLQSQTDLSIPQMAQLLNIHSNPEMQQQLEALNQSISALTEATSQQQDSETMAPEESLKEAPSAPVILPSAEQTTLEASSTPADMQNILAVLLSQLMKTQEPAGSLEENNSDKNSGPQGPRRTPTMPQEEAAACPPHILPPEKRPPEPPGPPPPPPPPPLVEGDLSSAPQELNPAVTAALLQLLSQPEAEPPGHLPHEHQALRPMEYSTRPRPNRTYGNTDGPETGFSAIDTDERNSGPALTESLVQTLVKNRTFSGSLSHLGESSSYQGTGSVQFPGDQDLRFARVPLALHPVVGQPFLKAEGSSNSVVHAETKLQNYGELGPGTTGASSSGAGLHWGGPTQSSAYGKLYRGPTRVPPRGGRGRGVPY", "test": "Inhibition of human recombinant CRK7 at 500 nM in presence of ATP by radiometric assay relative to control"}, "[3]": {"target": "Vascular endothelial growth factor receptor 3 (Homo sapiens) (UniProt P35916)", "sequence (P35916 whole entry)": "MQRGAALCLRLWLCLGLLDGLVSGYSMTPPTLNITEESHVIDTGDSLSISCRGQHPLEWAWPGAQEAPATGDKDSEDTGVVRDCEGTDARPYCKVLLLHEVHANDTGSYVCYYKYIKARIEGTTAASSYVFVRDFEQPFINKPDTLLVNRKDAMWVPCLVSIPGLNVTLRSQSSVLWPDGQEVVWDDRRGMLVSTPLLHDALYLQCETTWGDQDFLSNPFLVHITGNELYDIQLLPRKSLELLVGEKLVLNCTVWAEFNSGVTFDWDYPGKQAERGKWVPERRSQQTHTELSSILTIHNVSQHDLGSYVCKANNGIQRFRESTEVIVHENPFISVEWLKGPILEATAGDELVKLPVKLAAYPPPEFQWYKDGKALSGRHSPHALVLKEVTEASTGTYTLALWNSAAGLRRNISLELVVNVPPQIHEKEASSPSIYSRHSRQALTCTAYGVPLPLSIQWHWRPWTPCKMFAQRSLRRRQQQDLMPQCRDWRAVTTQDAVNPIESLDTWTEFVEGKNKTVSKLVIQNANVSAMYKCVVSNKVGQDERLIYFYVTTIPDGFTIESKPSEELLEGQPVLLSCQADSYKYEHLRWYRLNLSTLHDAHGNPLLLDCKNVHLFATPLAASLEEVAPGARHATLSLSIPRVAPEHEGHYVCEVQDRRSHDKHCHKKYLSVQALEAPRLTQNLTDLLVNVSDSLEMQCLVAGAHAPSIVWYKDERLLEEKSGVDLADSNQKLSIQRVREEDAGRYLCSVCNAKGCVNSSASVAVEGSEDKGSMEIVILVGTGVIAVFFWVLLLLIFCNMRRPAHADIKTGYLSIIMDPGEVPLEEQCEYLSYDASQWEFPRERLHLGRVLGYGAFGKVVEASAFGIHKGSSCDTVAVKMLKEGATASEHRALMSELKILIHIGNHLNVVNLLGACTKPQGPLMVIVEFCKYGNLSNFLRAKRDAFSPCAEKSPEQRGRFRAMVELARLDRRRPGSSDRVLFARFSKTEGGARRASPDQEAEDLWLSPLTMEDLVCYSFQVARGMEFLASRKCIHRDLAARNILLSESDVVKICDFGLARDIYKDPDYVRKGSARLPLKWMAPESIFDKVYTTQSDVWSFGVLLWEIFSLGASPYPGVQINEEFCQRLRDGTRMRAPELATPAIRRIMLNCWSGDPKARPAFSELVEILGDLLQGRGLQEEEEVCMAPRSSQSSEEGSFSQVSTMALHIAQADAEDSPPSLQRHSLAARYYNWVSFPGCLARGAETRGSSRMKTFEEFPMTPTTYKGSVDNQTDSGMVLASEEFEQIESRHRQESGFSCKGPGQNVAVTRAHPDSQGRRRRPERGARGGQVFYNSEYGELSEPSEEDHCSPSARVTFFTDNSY", "test": "Inhibition of human recombinant FLT4 at 500 nM in presence of ATP by radiometric assay relative to control"}, "Homo sapiens [4]": {"organism": "Homo sapiens", "test": "Inhibition of human recombinant p70S6K at 500 nM related to control ULK1"}, "Homo sapiens [5]": {"organism": "Homo sapiens", "test": "Inhibition of human recombinant p70S6K at 15 nM in presence of ATP by radiometric assay relative to control"}, "[6]": {"target": "T1, Serine/threonine-protein kinase D3 (Homo sapiens) (UniProt O94806)", "T1 sequence (whole entry)": "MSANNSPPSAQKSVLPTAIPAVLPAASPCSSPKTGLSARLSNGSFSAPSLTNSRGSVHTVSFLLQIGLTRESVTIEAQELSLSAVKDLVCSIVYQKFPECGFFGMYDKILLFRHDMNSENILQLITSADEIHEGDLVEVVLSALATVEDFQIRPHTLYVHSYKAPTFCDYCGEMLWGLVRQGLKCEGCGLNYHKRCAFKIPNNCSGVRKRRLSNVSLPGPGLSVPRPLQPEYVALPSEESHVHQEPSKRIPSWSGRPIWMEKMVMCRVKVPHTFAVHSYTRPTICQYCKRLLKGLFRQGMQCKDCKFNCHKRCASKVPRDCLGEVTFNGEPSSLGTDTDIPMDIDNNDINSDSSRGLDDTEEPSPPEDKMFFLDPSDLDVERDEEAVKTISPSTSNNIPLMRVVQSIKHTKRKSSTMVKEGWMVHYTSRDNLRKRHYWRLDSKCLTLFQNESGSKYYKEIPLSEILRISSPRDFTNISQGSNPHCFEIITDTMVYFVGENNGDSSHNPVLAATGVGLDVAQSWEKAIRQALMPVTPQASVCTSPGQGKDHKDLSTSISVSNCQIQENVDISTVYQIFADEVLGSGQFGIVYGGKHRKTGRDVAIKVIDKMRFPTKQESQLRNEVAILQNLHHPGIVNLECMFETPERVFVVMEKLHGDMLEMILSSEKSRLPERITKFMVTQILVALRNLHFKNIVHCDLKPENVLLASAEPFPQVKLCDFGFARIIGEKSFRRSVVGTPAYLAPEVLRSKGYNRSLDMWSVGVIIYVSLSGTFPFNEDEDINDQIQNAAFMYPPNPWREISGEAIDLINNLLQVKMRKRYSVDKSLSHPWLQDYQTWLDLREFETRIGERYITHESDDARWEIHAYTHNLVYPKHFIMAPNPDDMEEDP", "test": "Inhibition of human recombinant PKD3 at 15 nM in presence of ATP by radiometric assay relative to control"}, "[7]": {"target": "Protein kinase C delta type (Homo sapiens) (UniProt Q05655)", "sequence (Q05655 whole entry, looked up)": "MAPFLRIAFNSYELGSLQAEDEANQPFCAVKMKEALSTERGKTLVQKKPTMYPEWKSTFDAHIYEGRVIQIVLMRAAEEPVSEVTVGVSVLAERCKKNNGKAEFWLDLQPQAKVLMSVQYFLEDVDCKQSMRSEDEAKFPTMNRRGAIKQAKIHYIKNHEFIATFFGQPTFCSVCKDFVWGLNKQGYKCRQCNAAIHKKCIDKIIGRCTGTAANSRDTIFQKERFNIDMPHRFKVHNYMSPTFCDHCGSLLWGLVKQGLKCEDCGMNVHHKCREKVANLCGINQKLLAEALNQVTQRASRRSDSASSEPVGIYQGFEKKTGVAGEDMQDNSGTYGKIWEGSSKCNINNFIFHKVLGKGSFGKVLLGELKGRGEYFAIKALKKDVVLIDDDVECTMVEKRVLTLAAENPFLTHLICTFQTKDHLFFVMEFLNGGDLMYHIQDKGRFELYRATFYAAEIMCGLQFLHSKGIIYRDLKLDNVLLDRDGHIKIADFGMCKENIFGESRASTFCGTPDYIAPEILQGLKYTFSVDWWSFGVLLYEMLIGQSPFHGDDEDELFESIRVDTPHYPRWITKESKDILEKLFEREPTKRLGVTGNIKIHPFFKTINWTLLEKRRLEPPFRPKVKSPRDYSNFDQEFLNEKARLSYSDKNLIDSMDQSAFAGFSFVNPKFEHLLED", "test": "Inhibition of human recombinant PKCd at 15 nM related to control ULK1"}, "[8]": {"target": "T2, cAMP-dependent protein kinase catalytic subunit PRKX (Homo sapiens) (UniProt P51817)", "T2 sequence (whole entry)": "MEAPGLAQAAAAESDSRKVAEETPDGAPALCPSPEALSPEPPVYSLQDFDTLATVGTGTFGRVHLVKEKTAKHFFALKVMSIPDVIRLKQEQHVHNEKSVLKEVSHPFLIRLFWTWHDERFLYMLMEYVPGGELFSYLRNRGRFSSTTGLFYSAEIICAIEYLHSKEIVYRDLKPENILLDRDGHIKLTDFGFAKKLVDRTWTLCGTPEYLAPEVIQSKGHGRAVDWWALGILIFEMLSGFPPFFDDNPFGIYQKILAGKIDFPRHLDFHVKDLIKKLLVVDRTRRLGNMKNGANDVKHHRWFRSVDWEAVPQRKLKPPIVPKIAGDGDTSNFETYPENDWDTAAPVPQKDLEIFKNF", "test": "Inhibition of human recombinant PRKX at 40 nM related to control ULK1"}, "[9]": {"target": "T3, Protein kinase C zeta type (Homo sapiens) (UniProt Q05513)", "T3 sequence (whole entry)": "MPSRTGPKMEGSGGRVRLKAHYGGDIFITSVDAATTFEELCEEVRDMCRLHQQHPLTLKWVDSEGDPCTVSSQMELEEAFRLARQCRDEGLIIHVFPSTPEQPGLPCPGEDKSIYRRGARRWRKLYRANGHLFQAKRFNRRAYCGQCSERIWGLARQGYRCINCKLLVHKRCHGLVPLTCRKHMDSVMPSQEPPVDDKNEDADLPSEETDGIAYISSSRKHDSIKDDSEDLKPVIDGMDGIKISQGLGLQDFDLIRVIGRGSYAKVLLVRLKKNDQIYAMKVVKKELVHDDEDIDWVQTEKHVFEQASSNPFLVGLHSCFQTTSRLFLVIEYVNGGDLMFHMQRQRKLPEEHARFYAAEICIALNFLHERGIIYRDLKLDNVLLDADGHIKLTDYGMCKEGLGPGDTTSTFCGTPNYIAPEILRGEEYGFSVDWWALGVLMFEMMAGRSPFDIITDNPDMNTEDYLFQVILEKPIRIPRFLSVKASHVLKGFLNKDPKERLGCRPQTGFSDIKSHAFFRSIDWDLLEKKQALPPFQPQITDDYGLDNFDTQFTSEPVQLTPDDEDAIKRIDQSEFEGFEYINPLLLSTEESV", "test": "Inhibition of human recombinant PKCz at 40 nM in presence of ATP by radiometric assay relative to control"}, "[10]": {"target": "Cyclin-dependent kinase 2 (Homo sapiens) (UniProt P24941)", "test": "Inhibition of human recombinant CDK2 at 40 nM related to control ULK1"}, "Homo sapiens [11]": {"organism": "Homo sapiens", "test": "Inhibition of human recombinant KHS1 at 40 nM in presence of ATP by radiometric assay relative to control"}, "[12]": {"target": "T4, Serine/threonine-protein kinase ULK3 (Homo sapiens) (UniProt Q6PHR2)", "T4 sequence (whole entry)": "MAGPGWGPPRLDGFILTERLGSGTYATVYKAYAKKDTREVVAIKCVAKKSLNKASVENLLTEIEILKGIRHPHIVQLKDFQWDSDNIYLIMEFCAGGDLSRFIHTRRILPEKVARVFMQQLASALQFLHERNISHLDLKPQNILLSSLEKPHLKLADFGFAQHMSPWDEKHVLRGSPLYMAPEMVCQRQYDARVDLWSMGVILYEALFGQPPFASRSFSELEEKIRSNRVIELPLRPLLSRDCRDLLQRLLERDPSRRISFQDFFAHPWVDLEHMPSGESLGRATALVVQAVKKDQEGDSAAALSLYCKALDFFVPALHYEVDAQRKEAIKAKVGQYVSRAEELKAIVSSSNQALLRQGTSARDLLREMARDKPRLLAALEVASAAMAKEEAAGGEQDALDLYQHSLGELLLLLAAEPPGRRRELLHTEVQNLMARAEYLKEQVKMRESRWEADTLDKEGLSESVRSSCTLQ", "test": "Inhibition of human recombinant ULK3 at 40 nM related to control ULK1"}},
  "data": [
    {"smiles": "CNC(=O)c1ccccc1Oc1nc(Nc2cc(OC)c(OC)c(OC)c2)ncc1Br", "values": [
      {"measurement": "fold change (FC)", "setting": "[1]", "value": 0},
      {"measurement": "inhibition", "setting": "[2]", "value": 0, "unit": "%"},
      {"measurement": "inhibition", "setting": "[3]", "value": 23, "unit": "%"},
      {"measurement": "fold change (FC)", "setting": "Homo sapiens [4]", "value": 0}
    ]},
    {"smiles": "CC(C)[C@H](NC(=O)c1cc(-c2cnn3cc(-c4ccc(OCCN5CCCCC5)cc4)cnc23)cs1)C(F)(F)F", "values": [
      {"measurement": "inhibition", "setting": "Homo sapiens [5]", "value": 17, "unit": "%"},
      {"measurement": "inhibition", "setting": "[6]", "value": 7, "unit": "%"},
      {"measurement": "fold change (FC)", "setting": "[7]", "value": 0}
    ]},
    {"smiles": "O=C(N[C@@H](C1CC1)C(F)(F)F)c1cc(-c2cnn3cc(-c4ccc(F)cc4)cnc23)cs1", "values": [
      {"measurement": "fold change (FC)", "setting": "[8]", "value": 0.27},
      {"measurement": "inhibition", "setting": "[9]", "value": 0, "unit": "%"},
      {"measurement": "fold change (FC)", "setting": "[10]", "value": 0.4},
      {"measurement": "inhibition", "setting": "Homo sapiens [11]", "value": 0, "unit": "%"},
      {"measurement": "fold change (FC)", "setting": "[12]", "value": 0.07}
    ]}
  ]
}
